Patent US11174177B2, “Systems and methods for controlling aquatic pests with sulfurous acid” (priority 2017, dated 2021)

Experiments:
clams = conditions: sulfuric acid and low pH, previously found; cited from earlier work
bryozoa = experiment: Open-water pond treatment, mortality of bryozoa; assay type: in vivo
Experimental: (§1) Applicant have performed studies and determined that the present water treatment methods with sulfurous acid provide about 100% kill of bryozoa in 48 hours, 100% kill of zebra mussels in 5 days, and 100% kill of Asiatic clams in less than one month. In these studies, the protocols introduced sulfurous acid into open water to achieve water pH levels between 6.0 and 6.5 in the treatment water within a control distance from the location of introduction. Accordingly, these pH ranges are sufficient to control these aquatic species. This allows these relatively higher pH ranges to control the aquatic species without compromising the body of water. The cyanobacteria can have a 100% kill from the sulfurous acid with a pH of the treated water between 6-7, or more preferably between 6.8-7.
(§2) In view of the disclosure provided herein, it is now possible to achieve about 100% kill rates on these aquatic pest species in any size body of water at ambient temperature and pressure. The water treatment is performed through the addition of sufficient sulfurous acid (as well as any sulfites and bisulfites in the sulfurous acid) so as to reduce pH between about 6.0-about 6.5 over hours to days to weeks. […] The mortality of each aquatic pest was measured progressively over time until all the aquatic pests in the pond were determined to be dead or at a level so low as to be unmeasurable.

zebra mussels = experiment: Open-water pond treatment, mortality of zebra mussels; assay type: in vivo
Experimental: as §1, §2

Asiatic clams = experiment: Open-water pond treatment, mortality of Asiatic clams; assay type: in vivo
Experimental: as §1, §2

cyanobacteria = experiment: Treatment of Daybreak reservoirs infested with cyanobacteria; assay type: in vivo
Excerpt: (§3) As a control, Jordan Canal water, which was infected with cyanobacteria from Utah Lake, is directed to Daybreak and other areas. While treatment controlled cyanobacteria in Daybreak reservoirs, other areas that receive water from the Jordan Canal were still testing positive for cyanobacteria. As such, the treatment of sulfurous acid controlled the cyanobacteria in view of water ways further away (e.g., Blackridge Reservoir, Jordan River Narrows, and Wheeler Farm East Canal) still containing cyanobacteria. […] Since cyanobacteria are harmful to fish, the sulfurous acid actually improves the health of fish in the treated water.

anatoxin-a = experiment: Cyanotoxin in treated Daybreak reservoirs; parameters: species or system cyanobacteria; conditions: Daybreak reservoirs (surge pond), pH maintained between 6.8-7
Excerpt: as §3

fish or other animals = assay type: in vivo; conditions: Daybreak reservoirs, pH maintained between 6.8-7
Excerpt: as §3

algae = experiment: Removal of algae from treated water; assay type: in vivo; conditions: pH 6.5
Excerpt: In one example, pH 6.5 removed algae in 15 days.

aquatic pests = experiment: Water treatment, control of aquatic pests in general; assay type: in vivo
Excerpt: Thus, sulfurous acid can be used to treat water to control existing aquatic pest as well as condition the water to inhibit spreading of any aquatic pests introduced therein. This can inhibit spreading from a first body of water to a second body of water, such as from a pond to a stream or from a stream into a pond. While providing the sulfurous acid prohibits or prevents aquatic pest infestations or can be used as a prophylactic against aquatic pest infestations, application to the water can be done for the desire to control any aquatic pest in the water or soil in contact with the water (e.g., river bed, pond bed, shore, or other soil in direct contact with the water), or that may come into contact therewith. Also, the sulfurous acid can treat the surfaces of any water system or any surface of any object in the water to inhibit aquatic pest from attaching thereto, remove the aquatic pests from the surface (e.g., descale) or otherwise inhibit the aquatic pest from contaminating the water system. Thus, it may be desirable to apply the sulfurous acid to a water or soil contacting the water or structure confining the water as desired.
Thus, exhaust products from burning sulfur and reaction products of the exhaust products (e.g., reaction products from reacting sulfur dioxide with water or reacting other sulfur-containing substance in the exhaust with water) and water can be used to control the aquatic pets. In one aspect, sulfuric acid is specifically not used in the methods described herein.
Thus, introducing the exhaust products from burning sulfur that has sulfur dioxide (e.g., exhaust directly from a sulfur burn chamber) and reaction products of the exhaust products and water may reduce the calcium in the water in order to control the pests. This may include reducing the overall free calcium level, such as reducing carbonate and bicarbonate levels. In one aspect, the ability of sulfurous acid to degrade carbonates and bicarbonates may contribute to the ability of the present technology controlling pests. […] As referred to herein, the exhaust products include sulfur dioxide and possibly other sulfur-containing substances that are obtained directly from a sulfur burner that burns elemental sulfur.
Treatment can provide clarified water from murky water having one or more of these aquatic pests.

[1] = inoculated aquatic pond, pH about 6.0-about 6.5, no time stated

Row | Compound | kill of clams (clams) | kill of bryozoa (bryozoa; in 48 hours, open water, pH between 6.0 and 6.5) | kill of bryozoan (bryozoa; [1]) | kill of zebra mussels (zebra mussels; in 5 days, open water, pH between 6.0 and 6.5) [%] | kill of zebra mussels (zebra mussels; [1]) | kill of Asiatic clams (Asiatic clams; in less than one month, open water, pH between 6.0 and 6.5) [%] | kill of Asiatic clams (Asiatic clams; [1]) | time until free of cyanobacteria (cyanobacteria; Daybreak reservoirs (surge pond), pH maintained between 6.8-7) [weeks] | detection of cyanobacteria after treatment (cyanobacteria; Daybreak reservoirs, untreated Jordan Canal areas still positive) | cyanobacteria in waterways downstream from the Daybreak reservoirs (cyanobacteria; downstream of treated reservoirs) | kill of cyanobacteria (cyanobacteria; pH of the treated water between 6-7, more preferably 6.8-7) [%] | time until free of anatoxin-a (anatoxin-a) [weeks] | kill of non-target fish or other animals (fish or other animals) | time to removal of algae (algae) [days] | effect on algae, bacteria, zebra mussel, Asian clam, apple snail, American crab, crayfish, Bryozoans (aquatic pests; in vivo) | kill rates in the aquatic pests (aquatic pests; open and contained water) [%] | effectiveness in controlling aquatic pests versus sulfuric acid (aquatic pests; pH reduced to 7.1 with sulfurous acid versus pH 3.0 with sulfuric acid) | aquatic pest count (aquatic pests; preliminary testing, applied to water having aquatic pest)
1 | O=S(=O)(O)O [sulfuric acid] | kill the clams, but only in some cases |  |  |  |  |  |  |  |  |  |  |  |  |  |  |  |  | 
2 | sulfurous acid |  | about 100% | about 100% | 100 | about 100% | 100 | about 100% | ≤ 2 | non-detect | free of cyanobacteria | 100 | ≤ 2 | no fish or other animals were determined to be killed | 15 | reduce | 100 | more effective | reduces the aquatic pest count
